According to ChEMBL document CHEMBL1135428, “A new type of prodrug of catecholamines: an opportunity to improve the treatment of Parkinson's disease” (2002):
Activity calls are given as the source filed them. The calls are words filed in the database; no cut-off is given here.

Tests used:
Rattus norvegicus [1] = assay: Dopamine (DA) agonistic activity (% decrease in endogenous dopamine level) after peroral administration at a dose of 1.2 uM/kg; Inactive; assay type: functional, organism-based
Rattus norvegicus [2] = assay: Subcutaneously administered dose (in vivo) in male Wistar rats in a striatal microdialysis analysis and its metabolite, 5,6-di-OH-DPAT was found to be present; assay type: functional
Rattus norvegicus [3] = assay: Dopamine (DA) agonistic activity (% decrease in endogenous dopamine level) after peroral administration at a dose of 1.2 uMl/Kg; assay type: functional
Rattus norvegicus [4] = assay: Dopamine (DA) agonistic activity (% decrease in endogenous dopamine level) after peroral administration at a dose of 0.4 uM/Kg; assay type: functional

With CCCN(CCC)[C@@H]1CCC2=C(CCCC2=O)C1 the Decrease (Rattus norvegicus [1]) was “inactive” and the Dose (Rattus norvegicus [2]) was 350 µM/kg.

With CCCN(CCC)[C@H]1CCC2=C(CCCC2=O)C1 the Decrease (Rattus norvegicus [3]) was 70%, the Decrease (Rattus norvegicus [4]) was 50% and the Dose (Rattus norvegicus [2]) was 35 µM/kg.
